Test results as given in PMC10915964, “Identifying ligands for the PHD1 finger of KDM5A through high-throughput screening†” (RSC Chemical Biology, 2023).

Assay: Solubility in the NMR buffer
Assay type: physicochemical
Conditions: 1 mM in 50 mM HEPES pH 7.5, 150 mM KCl NMR buffer
Procedure: The binding of the ChemBridge screen hits to PHD1 was further evaluated using 2D ^1H–^15N HSQC NMR spectroscopy. This direct binding method allowed us to monitor binding by observing any ligand-induced changes in the previously assigned ^1H–^15N PHD1 amino acid resonances.[12] The HSQC spectra of 50 μM ^15N-labeled PHD1 with DMSO were overlaid with the spectra of the ^15N-labeled PHD1 incubated with 1 mM compound. […] Compound 715 958 was insoluble in the NMR buffer at this concentration and was not evaluated.
The six NCI screen hits confirmed by dose response in the FP assay were further evaluated by 2D ^1H–^15N HSQC NMR at 1 mM to assess their direct binding to PHD1 (Fig. S5, ESI ^†). Compound 990 670 was insoluble in the NMR buffer and was excluded from further consideration. Out of the five compounds evaluated, 991 830, 990 856, and 988 385 caused very minor CSP on PHD1 (average shifts ≤ 0.002 ppm; Fig. S5a–c, ESI ^†). […] The observed perturbations are low, but in the range of those induced by competitive binding fragment ligands evaluated at 5 mM with the PHD finger of BAZ2B, for which the perturbations observed were up to 0.035 ppm.[19] Residue Cys322, one of the Zn(II) ligands in the first zinc finger in PHD1, is the most affected by the presence of oxazepine 516 969 (Δδ of 0.009 ppm; Fig. S5d, ESI ^†). […]

**Q.** For `Cc1ccc(N2CC(c3nnc(NC(=O)c4c(-c5ccccc5)noc4C)s3)CC2=O)cc1C` (stereo not shown) [990 670], which “solubility in the NMR buffer” value is on record?
**A.** The value was “insoluble”.
